This passage reports inhibition results from ChEMBL document CHEMBL3132769, “Fragment growing to retain or alter the selectivity of anchored kinase hinge-binding fragments” (Medchemcomm, 2014).

Test [1] has as its target Protein kinase C beta type (Homo sapiens) (UniProt P05771). Nature of the test: Inhibition of human truncated PKC beta1 expressed in baculovirus assessed as substrate phosphorylation using fluorescence-labelled peptides as substrate at 2 uM after 90 mins by microfluidic peptide phosphorylation assay.
Test [2] has as its target MAP kinase-activated protein kinase 3 (Homo sapiens) (UniProt Q16644). Kind of test: Inhibition of human full length MAPKAPK3 expressed in Escherichia coli cell assessed as substrate phosphorylation using fluorescence-labelled peptides as substrate at 2 uM after 90 mins by microfluidic peptide phosphorylation assay.
Test [3] has as its target Receptor-type tyrosine-protein kinase FLT3 (Homo sapiens) (UniProt P36888). Nature of the test: Inhibition of human FLT3 catalytic domain expressed in baculovirus assessed as substrate phosphorylation using fluorescence-labelled peptides as substrate at 0.1 uM after 90 mins by microfluidic peptide phosphorylation assay.
For test [4], the target named is Ribosomal protein S6 kinase alpha-4 (Homo sapiens) (UniProt O75676). Kind of test: Inhibition of human full length MSK2 expressed in baculovirus assessed as substrate phosphorylation using fluorescence-labelled peptides as substrate at 0.06 uM after 90 mins by microfluidic peptide phosphorylation assay.
In test [5] the target is Tyrosine-protein kinase Fyn (Homo sapiens) (UniProt P06241). Kind of test: Inhibition of human full length FYN expressed in baculovirus assessed as substrate phosphorylation using fluorescence-labelled peptides as substrate at 0.06 uM after 90 mins by microfluidic peptide phosphorylation assay.
Test [6] deals with Ribosomal protein S6 kinase alpha-5 (Homo sapiens) (UniProt O75582). Nature of the test: Inhibition of human full length MSK1 expressed in baculovirus assessed as substrate phosphorylation using fluorescence-labelled peptides as substrate at 9 uM after 90 mins by microfluidic peptide phosphorylation assay.
In test [7] the target is T1, Serine/threonine-protein kinase DCLK2 (Homo sapiens) (UniProt Q8N568).
T1 sequence (whole entry): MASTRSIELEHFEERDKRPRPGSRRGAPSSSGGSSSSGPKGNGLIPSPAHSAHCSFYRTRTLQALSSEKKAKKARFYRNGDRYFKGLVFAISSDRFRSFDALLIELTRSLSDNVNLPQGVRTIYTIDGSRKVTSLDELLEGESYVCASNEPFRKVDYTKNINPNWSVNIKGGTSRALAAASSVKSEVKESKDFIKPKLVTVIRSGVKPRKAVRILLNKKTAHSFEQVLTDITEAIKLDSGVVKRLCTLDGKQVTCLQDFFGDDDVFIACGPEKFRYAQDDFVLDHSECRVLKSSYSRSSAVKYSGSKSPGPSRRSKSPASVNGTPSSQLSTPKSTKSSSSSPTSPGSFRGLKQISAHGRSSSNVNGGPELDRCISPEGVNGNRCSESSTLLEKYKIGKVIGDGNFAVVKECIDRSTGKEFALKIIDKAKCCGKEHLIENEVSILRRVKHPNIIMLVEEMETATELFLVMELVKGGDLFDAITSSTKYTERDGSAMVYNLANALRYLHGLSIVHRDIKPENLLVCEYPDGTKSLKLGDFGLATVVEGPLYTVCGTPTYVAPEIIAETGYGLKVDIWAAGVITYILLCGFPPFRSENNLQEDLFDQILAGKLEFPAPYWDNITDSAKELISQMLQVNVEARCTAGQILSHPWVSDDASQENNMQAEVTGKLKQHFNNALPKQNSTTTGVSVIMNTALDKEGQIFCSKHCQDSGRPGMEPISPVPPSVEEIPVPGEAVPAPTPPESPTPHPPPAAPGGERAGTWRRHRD
Nature of the test: Inhibition of human full length DCAMKL2 expressed in baculovirus assessed as substrate phosphorylation using fluorescence-labelled peptides as substrate at 8 uM after 90 mins by microfluidic peptide phosphorylation assay.

Test [8] has as its target Serine/threonine-protein kinase Chk2 (Homo sapiens) (UniProt O96017). Nature of the test: Inhibition of human full length CHK2 expressed in baculovirus assessed as substrate phosphorylation using fluorescence-labelled peptides as substrate at 70 uM after 90 mins by microfluidic peptide phosphorylation assay.
In test [9] the target is Serine/threonine-protein kinase PAK 2 (Homo sapiens) (UniProt Q13177). Nature of the test: Inhibition of human truncated PAK2 expressed in Escherichia coli cell assessed as substrate phosphorylation using fluorescence-labelled peptides as substrate at 70 uM after 90 mins by microfluidic peptide phosphorylation assay.
Test [10] addresses T2, Aurora kinase C (Homo sapiens) (UniProt Q9UQB9).
T2 sequence (whole entry): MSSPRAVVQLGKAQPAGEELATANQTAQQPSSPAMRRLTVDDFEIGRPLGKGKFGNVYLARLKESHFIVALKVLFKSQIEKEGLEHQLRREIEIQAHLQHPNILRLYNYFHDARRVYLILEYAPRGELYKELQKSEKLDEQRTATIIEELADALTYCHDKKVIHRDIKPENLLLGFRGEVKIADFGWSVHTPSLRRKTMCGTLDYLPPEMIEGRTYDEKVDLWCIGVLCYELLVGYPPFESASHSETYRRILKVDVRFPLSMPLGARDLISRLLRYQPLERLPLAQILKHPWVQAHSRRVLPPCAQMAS
Kind of test: Inhibition of human full length AurC expressed in baculovirus assessed as substrate phosphorylation using fluorescence-labelled peptides as substrate at 420 uM after 90 mins by microfluidic peptide phosphorylation assay.

For test [11], the target named is T3, Serine/threonine-protein kinase Nek2 (Homo sapiens) (UniProt P51955).
T3 sequence (whole entry): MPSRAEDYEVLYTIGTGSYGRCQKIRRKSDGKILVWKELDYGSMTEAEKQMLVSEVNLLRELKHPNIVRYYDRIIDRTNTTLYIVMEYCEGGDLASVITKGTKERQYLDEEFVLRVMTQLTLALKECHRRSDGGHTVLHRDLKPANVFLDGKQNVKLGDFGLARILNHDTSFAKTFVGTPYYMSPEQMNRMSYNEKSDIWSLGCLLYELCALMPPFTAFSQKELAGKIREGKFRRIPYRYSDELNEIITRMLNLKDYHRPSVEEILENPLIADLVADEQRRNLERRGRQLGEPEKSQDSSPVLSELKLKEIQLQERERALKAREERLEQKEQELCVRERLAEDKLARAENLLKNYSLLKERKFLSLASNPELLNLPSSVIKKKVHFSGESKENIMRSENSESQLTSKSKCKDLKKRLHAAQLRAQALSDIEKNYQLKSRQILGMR
Nature of the test: Inhibition of human full length NEK2 expressed in baculovirus assessed as substrate phosphorylation using fluorescence-labelled peptides as substrate at 420 uM after 90 mins by microfluidic peptide phosphorylation assay.

Molecules are shown by their SMILES.

What is called inhibition is the change of the read-out against control, counted positive when it falls.

Chain of MAP kinase-activated protein kinase 3 (Homo sapiens) (Q16644 whole entry, looked up, the tested form may be a part): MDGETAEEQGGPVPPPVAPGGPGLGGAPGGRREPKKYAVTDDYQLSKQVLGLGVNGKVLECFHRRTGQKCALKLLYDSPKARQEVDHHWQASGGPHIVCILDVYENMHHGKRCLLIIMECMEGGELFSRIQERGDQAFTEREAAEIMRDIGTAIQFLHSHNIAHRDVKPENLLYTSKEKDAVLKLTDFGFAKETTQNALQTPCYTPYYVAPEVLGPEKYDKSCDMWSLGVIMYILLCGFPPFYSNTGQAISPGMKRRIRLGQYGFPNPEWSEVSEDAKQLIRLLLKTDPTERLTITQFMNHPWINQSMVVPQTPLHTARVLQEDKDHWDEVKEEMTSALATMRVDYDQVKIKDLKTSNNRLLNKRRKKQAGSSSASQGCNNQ
Chain of Serine/threonine-protein kinase PAK 2 (Homo sapiens) (Q13177 whole entry, the tested form may be a part): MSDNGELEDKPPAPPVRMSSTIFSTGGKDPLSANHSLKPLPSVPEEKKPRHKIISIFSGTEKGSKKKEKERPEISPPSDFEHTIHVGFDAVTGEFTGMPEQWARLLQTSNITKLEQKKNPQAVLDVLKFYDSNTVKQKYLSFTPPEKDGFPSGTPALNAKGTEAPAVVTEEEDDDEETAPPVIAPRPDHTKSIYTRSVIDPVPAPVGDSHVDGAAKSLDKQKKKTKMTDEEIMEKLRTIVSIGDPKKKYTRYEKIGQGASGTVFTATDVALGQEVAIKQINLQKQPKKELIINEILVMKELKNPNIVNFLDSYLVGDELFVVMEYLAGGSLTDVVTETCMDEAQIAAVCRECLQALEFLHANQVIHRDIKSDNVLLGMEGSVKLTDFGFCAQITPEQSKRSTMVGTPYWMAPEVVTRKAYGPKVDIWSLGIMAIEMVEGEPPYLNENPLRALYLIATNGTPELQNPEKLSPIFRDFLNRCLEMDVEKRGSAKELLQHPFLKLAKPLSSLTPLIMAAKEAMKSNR
Chain of Protein kinase C beta type (Homo sapiens) (P05771 2-671 limits assumed): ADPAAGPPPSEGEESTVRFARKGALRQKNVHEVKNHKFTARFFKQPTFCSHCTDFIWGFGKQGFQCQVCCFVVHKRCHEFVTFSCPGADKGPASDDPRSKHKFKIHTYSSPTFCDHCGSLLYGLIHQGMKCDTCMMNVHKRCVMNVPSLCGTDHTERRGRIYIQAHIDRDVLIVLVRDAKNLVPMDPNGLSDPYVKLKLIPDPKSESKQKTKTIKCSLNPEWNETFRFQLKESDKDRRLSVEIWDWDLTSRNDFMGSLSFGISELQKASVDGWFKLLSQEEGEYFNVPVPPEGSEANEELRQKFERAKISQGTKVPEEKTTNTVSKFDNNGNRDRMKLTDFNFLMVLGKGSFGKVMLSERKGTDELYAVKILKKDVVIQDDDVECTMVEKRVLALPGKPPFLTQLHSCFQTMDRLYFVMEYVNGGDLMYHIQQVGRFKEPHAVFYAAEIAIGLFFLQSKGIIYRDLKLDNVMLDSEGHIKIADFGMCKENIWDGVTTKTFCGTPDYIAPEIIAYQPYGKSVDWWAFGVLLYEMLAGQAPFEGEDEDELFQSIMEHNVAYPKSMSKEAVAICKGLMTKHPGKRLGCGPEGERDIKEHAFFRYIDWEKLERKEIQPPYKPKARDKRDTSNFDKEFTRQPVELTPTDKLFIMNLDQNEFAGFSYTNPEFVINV
Chain of Tyrosine-protein kinase Fyn (Homo sapiens) (P06241 2-537 limits assumed): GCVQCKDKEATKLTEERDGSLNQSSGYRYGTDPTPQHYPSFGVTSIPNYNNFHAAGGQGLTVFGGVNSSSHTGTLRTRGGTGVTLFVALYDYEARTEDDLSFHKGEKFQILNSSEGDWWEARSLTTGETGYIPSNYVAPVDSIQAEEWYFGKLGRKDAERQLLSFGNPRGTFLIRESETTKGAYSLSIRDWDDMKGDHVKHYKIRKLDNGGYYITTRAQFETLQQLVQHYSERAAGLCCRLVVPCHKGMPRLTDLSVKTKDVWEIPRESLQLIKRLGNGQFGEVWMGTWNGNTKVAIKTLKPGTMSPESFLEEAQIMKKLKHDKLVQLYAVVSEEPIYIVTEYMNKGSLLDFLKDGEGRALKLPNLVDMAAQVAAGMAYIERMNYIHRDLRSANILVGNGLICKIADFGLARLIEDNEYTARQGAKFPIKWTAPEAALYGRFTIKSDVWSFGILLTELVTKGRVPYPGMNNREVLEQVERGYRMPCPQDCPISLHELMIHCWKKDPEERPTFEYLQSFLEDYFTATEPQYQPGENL
Chain of Receptor-type tyrosine-protein kinase FLT3 (Homo sapiens) (P36888 whole entry, the tested form may be a part): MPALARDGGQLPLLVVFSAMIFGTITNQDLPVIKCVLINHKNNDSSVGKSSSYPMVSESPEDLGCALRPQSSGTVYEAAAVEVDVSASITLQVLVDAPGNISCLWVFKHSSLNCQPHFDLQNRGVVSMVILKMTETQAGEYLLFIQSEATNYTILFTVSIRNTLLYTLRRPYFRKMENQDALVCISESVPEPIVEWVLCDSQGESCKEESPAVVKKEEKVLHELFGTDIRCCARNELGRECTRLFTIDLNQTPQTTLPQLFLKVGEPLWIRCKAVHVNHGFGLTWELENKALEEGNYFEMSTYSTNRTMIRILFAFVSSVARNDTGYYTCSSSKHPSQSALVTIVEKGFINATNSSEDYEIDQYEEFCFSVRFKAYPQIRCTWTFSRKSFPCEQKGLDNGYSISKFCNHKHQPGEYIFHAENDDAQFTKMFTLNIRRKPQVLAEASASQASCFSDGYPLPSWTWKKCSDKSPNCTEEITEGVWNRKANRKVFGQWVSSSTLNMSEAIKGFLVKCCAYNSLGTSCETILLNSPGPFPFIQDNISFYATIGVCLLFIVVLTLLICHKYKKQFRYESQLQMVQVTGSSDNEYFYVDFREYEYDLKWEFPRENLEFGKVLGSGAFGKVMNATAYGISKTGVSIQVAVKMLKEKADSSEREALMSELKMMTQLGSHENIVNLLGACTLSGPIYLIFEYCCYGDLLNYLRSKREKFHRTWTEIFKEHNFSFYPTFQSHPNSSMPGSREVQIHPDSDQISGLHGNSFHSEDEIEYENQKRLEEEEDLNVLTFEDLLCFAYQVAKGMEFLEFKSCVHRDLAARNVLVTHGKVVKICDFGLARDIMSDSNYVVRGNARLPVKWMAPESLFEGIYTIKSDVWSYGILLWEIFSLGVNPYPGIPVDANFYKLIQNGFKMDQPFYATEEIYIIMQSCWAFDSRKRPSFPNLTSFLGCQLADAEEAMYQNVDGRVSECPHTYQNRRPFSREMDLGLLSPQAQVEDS
Chain of Ribosomal protein S6 kinase alpha-5 (Homo sapiens) (O75582 whole entry, looked up): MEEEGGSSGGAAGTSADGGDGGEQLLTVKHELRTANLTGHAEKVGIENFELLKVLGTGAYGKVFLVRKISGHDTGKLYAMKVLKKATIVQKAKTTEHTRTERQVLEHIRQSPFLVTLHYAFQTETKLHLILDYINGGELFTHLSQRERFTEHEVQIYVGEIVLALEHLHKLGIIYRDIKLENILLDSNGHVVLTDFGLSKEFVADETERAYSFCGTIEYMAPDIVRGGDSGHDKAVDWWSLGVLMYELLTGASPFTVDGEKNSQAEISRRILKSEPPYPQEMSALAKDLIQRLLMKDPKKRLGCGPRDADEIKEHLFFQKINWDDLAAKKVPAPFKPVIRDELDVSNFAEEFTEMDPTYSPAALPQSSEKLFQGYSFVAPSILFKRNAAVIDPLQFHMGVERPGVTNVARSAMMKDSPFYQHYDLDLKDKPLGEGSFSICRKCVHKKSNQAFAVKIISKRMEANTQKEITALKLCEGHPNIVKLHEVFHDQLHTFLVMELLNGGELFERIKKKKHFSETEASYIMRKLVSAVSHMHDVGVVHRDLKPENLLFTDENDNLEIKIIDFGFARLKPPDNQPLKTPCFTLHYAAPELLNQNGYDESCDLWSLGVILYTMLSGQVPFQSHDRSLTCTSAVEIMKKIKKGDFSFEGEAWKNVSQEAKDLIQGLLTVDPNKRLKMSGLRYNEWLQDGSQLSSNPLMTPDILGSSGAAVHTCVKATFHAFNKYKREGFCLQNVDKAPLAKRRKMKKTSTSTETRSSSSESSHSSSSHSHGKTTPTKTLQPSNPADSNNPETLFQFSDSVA
Chain of Ribosomal protein S6 kinase alpha-4 (Homo sapiens) (O75676 whole entry, looked up): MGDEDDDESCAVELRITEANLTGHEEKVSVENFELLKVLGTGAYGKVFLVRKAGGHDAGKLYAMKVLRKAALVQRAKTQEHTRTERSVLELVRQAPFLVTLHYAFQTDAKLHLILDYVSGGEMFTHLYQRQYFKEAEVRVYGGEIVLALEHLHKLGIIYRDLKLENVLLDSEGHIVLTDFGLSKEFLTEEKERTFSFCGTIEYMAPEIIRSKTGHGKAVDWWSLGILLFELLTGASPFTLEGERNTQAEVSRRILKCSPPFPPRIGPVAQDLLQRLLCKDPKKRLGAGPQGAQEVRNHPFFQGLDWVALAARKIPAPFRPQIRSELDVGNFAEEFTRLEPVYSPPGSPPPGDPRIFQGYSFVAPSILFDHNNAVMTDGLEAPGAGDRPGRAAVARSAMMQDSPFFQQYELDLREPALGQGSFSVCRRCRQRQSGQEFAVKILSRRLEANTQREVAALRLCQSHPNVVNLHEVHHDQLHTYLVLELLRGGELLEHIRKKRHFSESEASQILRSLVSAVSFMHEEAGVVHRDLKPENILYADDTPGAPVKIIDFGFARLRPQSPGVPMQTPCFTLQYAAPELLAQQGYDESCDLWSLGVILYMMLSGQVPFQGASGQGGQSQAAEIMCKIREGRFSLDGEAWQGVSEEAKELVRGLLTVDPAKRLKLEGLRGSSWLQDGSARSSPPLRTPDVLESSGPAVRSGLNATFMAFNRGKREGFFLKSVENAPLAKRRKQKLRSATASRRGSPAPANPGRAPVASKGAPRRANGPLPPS

In the case of `NC1CCN(c2ncnc3[nH]ccc23)CC1`, the inhibition came out at 16.5% in test [1] and 45.5% in test [2].

`C[C@H](CN(C)C)Oc1nc(Nc2cc3cccc(Cl)c3cn2)cnc1C#N`: in test [3], the inhibition came to 7%. In the case of `NC1(Cc2ccc(Cl)cc2)CCN(c2ncnc3[nH]ccc23)CC1`, the inhibition in test [4] is 0%; in test [5], 3%. Consider `NCC1CN(c2ncnc3[nH]c4cnccc4c23)CCO1` (stereo unspecified), for which the inhibition in test [6] was 60%. Take `NCC1CCN(c2ncnc3[nH]ccc23)CC1`: the inhibition in test [7] was 21%.

For the molecule `CNCc1ccc(-c2ncnc3[nH]cnc23)cc1`, the inhibition turned out to be 57.5% in [8] and 26% in test [9]. As for `c1nc(N2CCOCC2)c2nc[nH]c2n1`, the inhibition turned out to be 95.5% in test [10] and 27% in [11].
